# Results: ChEMBL document CHEMBL5055671, “Targeting a Novel KRAS Binding Site: Application of One-Component Stapling of Small (5-6-mer) Peptides” (J Med Chem, 2021)
# Key:
# GTPase KRas = GTPase KRas (Homo sapiens, UniProt P01116, G12V); assay: Inhibition of alexa fluor 647-labeled kinase tracer 314 binding to biotinylated-KRAS G12V mutant (unknown origin) measured after 60 mins by HTRF competition binding assay; conditions: read-out: IC50
# [1] = test system: GTPase KRas (Homo sapiens), P01116 [G12V]; assay: Inhibition of alexa fluor 647-labeled kinase tracer 314 binding to biotinylated-KRAS G12V mutant (unknown origin) at 100 uM measured after 60 mins by HTRF competition binding assay
# [2] = Inhibition of GDP-tagged biotinylated KRas G12C mutant (unknown origin)/GST-Raf (unknown origin) assessed as SOS-mediated nucleotide exchange measured after 1 hr by HRTF assay; parameters: species or system Homo sapiens
compound,measurement,setting,value
C=C1/C=C/CCCC(=O)N[C@@H](C)C(=O)N2CCC[C@H]2C(=O)N[C@@H]([C@@H](C)CC)C(=O)N[C@H](C(=O)N[C@@H](CC(C)C)C(N)=O)CSC1,IC50,GTPase KRas,> 100 µM
same,inhibition,[1],28%
CC[C@H](C)[C@@H]1NC(=O)[C@@H]2CCCN2C(=O)CNC(=O)CCCc2cnnn2CC[C@@H](C(=O)N[C@@H](CC(C)C)C(N)=O)NC1=O,IC50,GTPase KRas,> 100 µM
same,inhibition,[1],22%
CC[C@H](C)[C@@H]1NC(=O)[C@@H]2CCCN2C(=O)CNC(=O)CCCC#CC#CCOC[C@@H](C(=O)N[C@@H](CC(C)C)C(N)=O)NC1=O,IC50,GTPase KRas,> 100 µM
same,inhibition,[1],0%
CC[C@H](C)[C@@H]1NC(=O)[C@@H]2CCCN2C(=O)[C@H](Cc2ccccc2)NC(=O)CCCc2cn(nn2)C[C@@H](C(=O)N[C@@H](CC(C)C)C(N)=O)NC1=O,IC50,GTPase KRas,> 100 µM
same,IC50,[2],> 30 µM
same,inhibition,[1],8%
CC(C)C[C@H](NC(=O)[C@@H]1COCc2cnnn2CC(=O)NCC(=O)N2CCC[C@H]2C(=O)N[C@@H](Cc2cccc3ccccc23)C(=O)N1)C(N)=O,IC50,GTPase KRas,9.6 µM
same,IC50,[2],3.2 µM
CC[C@H](C)[C@@H]1NC(=O)[C@@H]2CCCN2C(=O)[C@H](C)NC(=O)c2ccccc2/C=C/COC[C@@H](C(=O)N[C@@H](CC(C)C)C(N)=O)NC1=O,IC50,GTPase KRas,> 100 µM
same,inhibition,[1],25%
CC(C)C[C@H](NC(=O)[C@@H]1COCc2cnnn2CCCCC(=O)NCC(=O)N2CCOC[C@H]2C(=O)N[C@@H](Cc2cccc3ccccc23)C(=O)N1)C(N)=O,IC50,GTPase KRas,6.5 µM
same,IC50,[2],5 µM
CC[C@H](C)[C@@H]1NC(=O)[C@@H]2CCCN2C(=O)CNC(=O)CCCn2nncc2COC[C@@H](C(=O)N[C@@H](CC(C)C)C(N)=O)NC1=O,IC50,GTPase KRas,> 100 µM
same,inhibition,[1],39%
CC(C)C[C@H](NC(=O)[C@@H]1COCc2cnnn2CCCCC(=O)NCC(=O)N2CCCC[C@H]2C(=O)N[C@@H](Cc2cccc3ccccc23)C(=O)N1)C(N)=O,IC50,GTPase KRas,7.7 µM
same,IC50,[2],2.4 µM
CC[C@H](C)[C@@H]1NC(=O)[C@@H]2CCCN2C(=O)[C@H](Cc2ccc(O)cc2)NC(=O)CCCCn2nncc2CSC[C@@H](C(=O)N[C@@H](CC(C)C)C(N)=O)NC1=O,IC50,GTPase KRas,> 100 µM
same,IC50,[2],> 30 µM
same,inhibition,[1],20%
CC[C@H](C)[C@@H]1NC(=O)[C@@H]2CCCN2C(=O)CNC(=O)CCCCn2nncc2COC[C@@H](C(=O)N[C@@H](CC(C)C)C(N)=O)NC1=O,IC50,GTPase KRas,100 µM
same,inhibition,[1],48%
CC[C@H](C)[C@@H]1NC(=O)[C@@H]2CCCN2C(=O)CNC(=O)CCCc2cnnn2C[C@@H](C(=O)N[C@@H](CC(C)C)C(N)=O)NC1=O,IC50,GTPase KRas,> 100 µM
same,inhibition,[1],16%
CC(C)C[C@H](NC(=O)[C@H]1CSCc2cnnn2CCCCC(=O)NCC(=O)N2CCC[C@H]2C(=O)N[C@@H](Cc2cccc3ccccc23)C(=O)N1)C(N)=O,IC50,GTPase KRas,11 µM
same,IC50,[2],2.5 µM
CC[C@H](C)[C@@H]1NC(=O)[C@@H]2CCCN2C(=O)CNC(=O)CCCc2cn(nn2)CC[C@@H](C(=O)N[C@@H](CC(C)C)C(N)=O)NC1=O,IC50,GTPase KRas,> 100 µM
same,inhibition,[1],6%
CC[C@H](C)[C@@H]1NC(=O)[C@@H]2CCCN2C(=O)[C@H](C)NC(=O)CCCC#CC#CCOC[C@@H](C(=O)N[C@@H](CC(C)C)C(N)=O)NC1=O,IC50,GTPase KRas,> 100 µM
same,inhibition,[1],0%
CC[C@H](C)[C@@H]1NC(=O)[C@@H]2CCCN2C(=O)[C@H](Cc2ccc(O)cc2)NC(=O)CCCCn2nncc2COC[C@@H](C(=O)N[C@@H](CC(C)C)C(N)=O)NC1=O,IC50,GTPase KRas,> 100 µM
same,IC50,[2],> 30 µM
same,inhibition,[1],28%
CC(C)C[C@H](NC(=O)[C@@H]1COCc2cnnn2CCC(=O)NCC(=O)N2CCC[C@H]2C(=O)N[C@@H](Cc2cccc3ccccc23)C(=O)N1)C(N)=O,IC50,GTPase KRas,7 µM
same,IC50,[2],3.6 µM
CC[C@H](C)[C@@H]1NC(=O)[C@@H]2CCCN2C(=O)[C@H](Cc2ccccc2)NC(=O)CCCCn2nncc2COC[C@@H](C(=O)N[C@@H](CC(C)C)C(N)=O)NC1=O,IC50,GTPase KRas,> 100 µM
same,inhibition,[1],38%
CC[C@H](C)[C@@H]1NC(=O)[C@@H]2CCCN2C(=O)[C@H](Cc2ccccc2)NC(=O)CCCc2cn(nn2)CC[C@@H](C(=O)N[C@@H](CC(C)C)C(N)=O)NC1=O,IC50,GTPase KRas,> 100 µM
same,IC50,[2],> 30 µM
same,inhibition,[1],9%
C=C1/C=C/COC[C@@H](C(=O)N[C@@H](CC(C)C)C(N)=O)NC(=O)[C@H]([C@@H](C)CC)NC(=O)[C@@H]2CCCN2C(=O)CNC(=O)C1,IC50,GTPase KRas,98 µM
same,inhibition,[1],46%
CC[C@H](C)[C@@H]1NC(=O)[C@@H]2CCCN2C(=O)[C@H](Cc2ccc(O)cc2)NC(=O)CCCCn2cc(nn2)COC[C@@H](C(=O)N[C@@H](CC(C)C)C(N)=O)NC1=O,IC50,GTPase KRas,> 100 µM
same,IC50,[2],> 30 µM
same,inhibition,[1],22%
CC(C)C[C@H](NC(=O)[C@@H]1COCc2cnnn2CCCCC(=O)NCC(=O)N2CCC[C@H]2C(=O)N[C@@H](Cc2cccc3ccccc23)C(=O)N1)C(N)=O,IC50,GTPase KRas,7.1 µM
same,IC50,[2],2.4 µM
CC[C@H](C)[C@@H]1NC(=O)[C@@H]2CCCN2C(=O)[C@H](Cc2ccc(O)cc2)NC(=O)CCCCn2cc(nn2)CSC[C@@H](C(=O)N[C@@H](CC(C)C)C(N)=O)NC1=O,IC50,GTPase KRas,> 100 µM
same,IC50,[2],> 30 µM
same,inhibition,[1],0%
CC(C)C[C@H](NC(=O)[C@@H]1COCc2cnnn2CCCC(=O)NCC(=O)N2CCC[C@H]2C(=O)N[C@@H](Cc2cccc3ccccc23)C(=O)N1)C(N)=O,IC50,GTPase KRas,10 µM
same,IC50,[2],4.1 µM
CC[C@H](C)[C@@H]1NC(=O)[C@@H]2CCCN2C(=O)[C@H](Cc2ccc(O)cc2)NC(=O)CCc2cnnn2CC[C@@H](C(=O)N[C@@H](CC(C)C)C(N)=O)NC1=O,IC50,GTPase KRas,> 100 µM
same,inhibition,[1],44%
C=C1/C=C/COC[C@@H](C(=O)N[C@@H](CC(C)C)C(N)=O)NC(=O)[C@H]([C@@H](C)CC)NC(=O)[C@@H]2CCCN2C(=O)CNC(=O)CC1,IC50,GTPase KRas,> 100 µM
same,inhibition,[1],21%
CC[C@H](C)[C@@H]1NC(=O)[C@@H]2CCCN2C(=O)[C@H](C)NC(=O)CCCCn2nncc2COC[C@@H](C(=O)N[C@@H](CC(C)C)C(N)=O)NC1=O,IC50,GTPase KRas,> 100 µM
same,inhibition,[1],30%
CC[C@H](C)[C@@H]1NC(=O)[C@@H]2CCCN2C(=O)[C@H](C)NC(=O)CCC/C=C/COC[C@@H](C(=O)N[C@@H](CC(C)C)C(N)=O)NC1=O,IC50,GTPase KRas,> 100 µM
same,inhibition,[1],5%
CC(C)C[C@H](NC(=O)[C@@H]1COCc2cnnn2CCCCC(=O)NCC(=O)N2CCC[C@H]2C(=O)N[C@@H](Cc2ccc(Cl)cc2)C(=O)N1)C(N)=O,IC50,GTPase KRas,> 74 µM
